Results reported in patent publication US9096500B2, “Acyl sulfonamide compounds” (Pfizer Limited, priority 2010, dated 2015).
pIC50: −log10 of the molar value. Counter-ions that a name gives are not always drawn.

These compounds were tested against T1, Nav1.7 (or SCN9A) channel (Homo sapiens, UniProt Q15858) (assay: Nav1.7 (hSCN9A) electrophysiology assay, PatchXpress platform). Settings: estimated IC50 from single point electrophysiology data, HEK cells stably expressing hSCN9A, held at V1/2 of inactivation, read-out: Nav1.7 EIC50.
T1 construct: expressed in transfected cells
T1 sequence (Q15858 whole entry): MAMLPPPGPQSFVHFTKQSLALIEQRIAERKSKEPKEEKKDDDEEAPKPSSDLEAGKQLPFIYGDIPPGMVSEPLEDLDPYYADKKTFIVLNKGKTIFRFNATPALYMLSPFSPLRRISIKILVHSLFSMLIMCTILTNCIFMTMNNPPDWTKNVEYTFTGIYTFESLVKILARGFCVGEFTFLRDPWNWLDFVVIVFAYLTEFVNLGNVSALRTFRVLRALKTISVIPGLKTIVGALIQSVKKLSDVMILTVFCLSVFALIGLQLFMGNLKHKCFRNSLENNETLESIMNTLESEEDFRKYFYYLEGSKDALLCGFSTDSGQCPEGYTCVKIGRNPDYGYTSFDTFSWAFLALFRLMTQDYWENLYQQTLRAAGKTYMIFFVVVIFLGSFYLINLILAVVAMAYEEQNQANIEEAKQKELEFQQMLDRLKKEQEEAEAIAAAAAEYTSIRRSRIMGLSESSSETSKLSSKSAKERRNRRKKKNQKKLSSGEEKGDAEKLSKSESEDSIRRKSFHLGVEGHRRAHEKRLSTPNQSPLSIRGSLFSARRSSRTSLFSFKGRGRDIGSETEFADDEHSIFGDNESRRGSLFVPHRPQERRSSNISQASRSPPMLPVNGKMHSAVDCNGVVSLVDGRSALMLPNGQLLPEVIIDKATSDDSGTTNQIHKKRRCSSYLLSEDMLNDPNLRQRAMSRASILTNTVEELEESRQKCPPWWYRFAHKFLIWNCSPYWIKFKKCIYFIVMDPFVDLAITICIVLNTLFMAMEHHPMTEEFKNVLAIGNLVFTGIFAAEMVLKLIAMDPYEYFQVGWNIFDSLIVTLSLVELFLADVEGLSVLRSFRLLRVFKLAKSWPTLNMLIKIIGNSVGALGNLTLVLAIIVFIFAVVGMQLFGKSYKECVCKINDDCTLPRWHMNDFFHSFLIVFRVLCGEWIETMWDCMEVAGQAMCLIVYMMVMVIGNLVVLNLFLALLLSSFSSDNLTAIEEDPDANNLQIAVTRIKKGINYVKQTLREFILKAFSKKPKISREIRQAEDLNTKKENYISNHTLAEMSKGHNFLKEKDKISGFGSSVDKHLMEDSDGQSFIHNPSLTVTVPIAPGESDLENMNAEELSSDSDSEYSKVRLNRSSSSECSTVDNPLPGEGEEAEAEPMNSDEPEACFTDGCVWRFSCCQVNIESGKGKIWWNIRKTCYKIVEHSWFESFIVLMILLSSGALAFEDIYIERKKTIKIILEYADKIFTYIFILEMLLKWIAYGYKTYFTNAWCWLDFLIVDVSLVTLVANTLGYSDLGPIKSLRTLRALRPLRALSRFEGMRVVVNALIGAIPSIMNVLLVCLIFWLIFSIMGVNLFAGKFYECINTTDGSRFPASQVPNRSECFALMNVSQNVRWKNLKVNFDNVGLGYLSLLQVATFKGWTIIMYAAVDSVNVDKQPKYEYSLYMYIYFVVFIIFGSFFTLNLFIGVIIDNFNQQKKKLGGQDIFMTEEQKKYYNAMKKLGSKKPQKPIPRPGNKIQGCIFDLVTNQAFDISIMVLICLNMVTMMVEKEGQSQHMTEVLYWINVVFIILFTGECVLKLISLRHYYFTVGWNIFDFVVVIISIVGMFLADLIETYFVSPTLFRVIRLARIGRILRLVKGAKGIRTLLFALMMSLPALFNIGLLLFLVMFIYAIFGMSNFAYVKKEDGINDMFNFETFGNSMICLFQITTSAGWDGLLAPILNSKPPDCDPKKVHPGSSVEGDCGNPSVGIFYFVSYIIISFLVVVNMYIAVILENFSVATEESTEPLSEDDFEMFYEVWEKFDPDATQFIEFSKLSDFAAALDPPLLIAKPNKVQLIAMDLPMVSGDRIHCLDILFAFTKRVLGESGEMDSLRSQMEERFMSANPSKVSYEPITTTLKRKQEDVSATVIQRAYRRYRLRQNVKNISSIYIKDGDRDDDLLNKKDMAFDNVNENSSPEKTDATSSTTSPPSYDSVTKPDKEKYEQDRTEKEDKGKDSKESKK
Assay type: cell-based
Method: The ability of the compounds of formula (I) to block the Nav1.7 (or SCN9A) channel were measured using the assay described below.
Human Embryonic Kidney (HEK) cells were transfected with an hSCN9A construct using lipofectamine reagent (Invitrogen), using standard techniques. Cells stably expressing the hSCN9A constructs were identified by their resistance to G-418 (400 μg/ml). Clones were screened for expression using the whole-cell voltage-clamp technique.
HEK cells stably transfected with hSCN9A were maintained in DMEM medium supplemented with 10% heat-inactivated fetal bovine serum and 400 μg/ml G-418 in an incubator at 37° C. with a humidified atmosphere of 10% CO2. For HTS, cells were harvested from flasks by trypsinization and replated in an appropriate multi-well plate (typically 96 or 384 wells/plate) such that confluence would be achieved within 24 hours of plating. For electrophysiological studies, cells were removed from the culture flask by brief trypsinization and re-plated at low density onto glass cover slips. Cells were typically used for electrophysiological experiments within 24 to 72 hours after plating.
Cover slips containing HEK cells expressing hSCN9A were placed in a bath on the stage of an inverted microscope and perfused (approximately 1 ml/minutes) with extracellular solution of the following composition: 138 mM NaCl, 2 mM CaCl2, 5.4 mM KCl, 1 mM MgCl2, 10 mM glucose, and 10 mM HEPES, pH 7.4, with NaOH. […] The osmolarity of the extracellular and intracellular solutions was 300 mOsm/kg and 295 mOsm/kg, respectively. All recordings were made at room temperature (22-24° C.) using AXOPATCH 200B amplifiers and PCLAMP software (Axon Instruments, Burlingame, Calif.).
hSCN9A currents in HEK cells were measured using the whole-cell configuration of the patch-clamp technique (Hamill et al., 1981). Uncompensated series resistance was typically 2 to 5 mega ohms and >85% series resistance compensation was routinely achieved. […] Current records were acquired at 20 to 50 KHz and filtered at 5 to 10 KHz.
HEK cells stably transfected with hSCN9A were viewed under Hoffman contrast optics and placed in front of an array of flow pipes emitting either control or compound-containing extracellular solutions. All compounds were dissolved in dimethyl sulfoxide to make 10 mM stock solutions, which were then diluted into extracellular solution to attain the final concentrations desired. […] The voltage-dependence of inactivation was determined by applying a series of depolarizing prepulses (8 sec long in 10 mV increments) from a negative holding potential. The voltage was then immediately stepped to 0 mV to assess the magnitude of the sodium current. Currents elicited at 0 mV were plotted as a function of prepulse potential to allow estimation of the voltage at which 50% of the channels were inactivated (midpoint of inactivation or V1/2). Compounds were tested for their ability to inhibit hSCN9A sodium channels by activating the channel with a 20 msec voltage step to 0 mV following an 8 second conditioning prepulse to the empirically determined V1/2. Compound effect (% inhibition) was determined by difference in current amplitude before and after application of test compounds. […] Inhibition values <20% and >80% were excluded from the calculation.
Electrophysiological assays were conducted with PatchXpress 7000 hardware and associated software (Molecular Devices Corp). All assay buffers and solutions were identical to those used in conventional whole-cell voltage clamp experiments described above. hSCN9A cells were grown as above to 50%-80% confluency and harvested by trypsinization. Trypsinized cells were washed and resuspended in extracellular buffer at a concentration of 1×10^6 cells/ml. The onboard liquid handling facility of the PatchXpress was used for dispensing cells and application of test compounds.

| Compound | pIC50 |
| --- | --- |
| CS(=O)(=O)NC(=O)c1cc(F)c(COc2c(F)cccc2Cl)cc1F [Example 149, 4-[(2-chloro-6-fluorophenoxy)methyl]-2,5-difluoro-N-(methylsulfonyl)benzamide] | 5.40 |
| COc1ccc2cccc(OCc3cc(F)c(C(=O)NS(C)(=O)=O)cc3F)c2c1 [Example 156, 2,5-difluoro-4-{[(7-methoxy-1-naphthyl)oxy]methyl}-N-(methylsulfonyl)benzamide] | 5.64 |
| CS(=O)(=O)NC(=O)c1cc(F)c(COc2ccc3ccccc3c2)cc1F [Example 130, 2,5-difluoro-N-(methylsulfonyl)-4-[(2-naphthyloxy)methyl]benzamide] | 6.62 |
| CS(=O)(=O)NC(=O)c1cc(F)c(COc2ccc(-c3cocn3)cc2)cc1F [Example 138, 2,5-difluoro-N-(methylsulfonyl)-4-{[4-(1,3-oxazol-4-yl)phenoxy]methyl}benzamide] | 5.38 |
| CS(=O)(=O)NC(=O)c1cc(F)c(COc2ccc(F)cc2C#N)cc1F [Example 153, 4-[(2-cyano-4-fluorophenoxy)methyl]-2,5-difluoro-N-(methylsulfonyl)benzamide] | 4.92 |
| COc1cc(C#N)ccc1OCc1cc(F)c(C(=O)NS(C)(=O)=O)cc1F [Example 132, 4-[(4-cyano-2-methoxyphenoxy)methyl]-2,5-difluoro-N-(methylsulfonyl)benzamide] | < 5.52 |
| COc1cc(Cl)cc(OCc2cc(F)c(C(=O)NS(C)(=O)=O)cc2F)c1 [Example 98, 4-[(3-chloro-5-methoxyphenoxy)methyl]-2,5-difluoro-N-(methylsulfonyl)benzamide] | 6.85 |
| COc1ccc(OCc2cc(F)c(C(=O)NS(C)(=O)=O)cc2F)c2ccccc12 [Example 160, 2,5-difluoro-4-{[(4-methoxy-1-naphthyl)oxy]methyl}-N-(methylsulfonyl)benzamide] | 6.12 |
| COc1ccc(Cl)cc1COc1ccc(C(=O)NS(C)(=O)=O)cc1 [Example 223, 4-[(5-chloro-2-methoxybenzyl)oxy]-N-(methylsulfonyl)benzamide] | < 6.52 |
| CS(=O)(=O)NC(=O)c1ccc(OCc2cccc(Br)c2)cc1 [Example 21, 4-(3-Bromobenzyloxy)-N-(methylsulfonyl)benzamide] | 6.15 |
| CN1CCC(c2cccc(OCc3cc(F)c(C(=O)NS(C)(=O)=O)cc3F)c2)CC1 [Example 106, 2,5-difluoro-4-{[3-(1-methylpiperidin-4-yl)phenoxy]methyl}-N-(methylsulfonyl)benzamide] | 5.04 |
| CS(=O)(=O)NC(=O)c1cc(F)c(COc2ccc(Cl)c(OC(F)F)c2)cc1F [Example 50, 4-{[4-chloro-3-(difluoromethoxy)phenoxy]methyl}-2,5-difluoro-N-(methylsulfonyl)benzamide] | 6.66 |
| CS(=O)(=O)NC(=O)c1cc(F)c(COc2ccc(F)cc2)cc1F [Example 158, 2,5-difluoro-4-[(4-fluorophenoxy)methyl]-N-(methylsulfonyl)benzamide] | 5.82 |
| CS(=O)(=O)NC(=O)c1cc(F)c(COc2cc(F)cc(C(F)(F)F)c2)cc1F [Example 108, 2,5-difluoro-4-{[3-fluoro-5-(trifluoromethyl)phenoxy]methyl}-N-(methylsulfonyl)benzamide] | 7.06 |
| COc1cc(F)ccc1COc1cc(F)c(C(=O)NS(C)(=O)=O)cc1F [Example 215, 2,5-difluoro-4-[(4-fluoro-2-methoxybenzyl)oxy]-N-(methylsulfonyl)benzamide] | < 6.00 |
| CS(=O)(=O)NC(=O)c1cc(F)c(COc2ccc(OC(F)(F)F)cc2)cc1F [Example 144, 2,5-difluoro-N-(methylsulfonyl)-4-{[4-(trifluoromethoxy)phenoxy]methyl}benzamide] | 6.82 |
| CS(=O)(=O)NC(=O)c1ccc(OCc2ccc(Cl)cc2)cc1 [Example 88, 4-[(4-chlorobenzyl)oxy]-N-(methylsulfonyl)benzamide] | 5.21 |
| CS(=O)(=O)NC(=O)c1ccc(OCC2CCCC2)cc1 [Example 191, 4-(cyclopentylmethoxy)-N-(methylsulfonyl)benzamide] | 5.12 |
| CS(=O)(=O)NC(=O)c1cc(F)c(COc2ccc(Cl)c(F)c2)cc1F [Example 49, 4-[(4-Chloro-3-fluorophenoxy)methyl]-2,5-difluoro-N-(methylsulfonyl)benzamide] | 6.80 |

Second part, the compound after the results:

| pIC50 | Compound |
| --- | --- |
| 7.68 | CS(=O)(=O)NC(=O)c1cc(Cl)c(OCc2ccc(C(F)(F)F)c(Cl)c2)cc1F [Example 58, 5-Chloro-4-(3-chloro-4-(trifluoromethyl)benzyloxy)-2-fluoro-N-(methylsulfonyl)benzamide] |
| < 5.52 | COc1cc(Cl)ccc1OCc1ccc(C(=O)NS(C)(=O)=O)cc1 [Example 64, 4-[(4-Chloro-2-methoxyphenoxy)methyl]-N-(methylsulfonyl)benzamide] |
| 5.59 | CS(=O)(=O)NC(=O)c1cc(F)c(COc2ccc(C#N)c(F)c2)cc1F [Example 127, 4-[(4-cyano-3-fluorophenoxy)methyl]-2,5-difluoro-N-(methylsulfonyl)benzamide] |
| 5.00 | CS(=O)(=O)NC(=O)c1ccc(OCc2ccccc2OC(F)(F)F)c(C#N)c1 [Example 76, 3-cyano-N-(methylsulfonyl)-4-{[2-(trifluoromethoxy)benzyl]oxy}benzamide] |
| < 6.52 | CS(=O)(=O)NC(=O)c1cc(F)c(OCc2ccc(OC(F)(F)F)cc2)cc1F [Example 212, 2,5-difluoro-N-(methylsulfonyl)-4-{[4-(trifluoromethoxy)benzyl]oxy}benzamide] |
| 5.43 | CCc1ccc(OCc2ccc(C(=O)NS(C)(=O)=O)c(OC)c2)cc1 [Example 41, 4-[(4-Ethylphenoxy)methyl]-2-methoxy-N-(methylsulfonyl)benzamide diethylamine salt] |
| 5.54 | CS(=O)(=O)NC(=O)c1ccc(OCc2ccc(F)cc2Cl)cc1 [Example 171, 4-[(2-chloro-4-fluorobenzyl)oxy]-N-(methylsulfonyl)benzamide] |
| 5.82 | CS(=O)(=O)NC(=O)c1cc(F)c(OCc2ccc(C(F)(F)F)c(Cl)c2)cc1F [Example 10, 4-(3-Chloro-4-(trifluoromethyl)benzyloxy)-2,5-difluoro-N-(methylsulfonyl)benzamide] |
| 5.01 | CC(C)Oc1ccc(F)cc1OCc1cc(F)c(C(=O)NS(C)(=O)=O)cc1F [Example 143, 2,5-difluoro-4-[(5-fluoro-2-isopropoxyphenoxy)methyl]-N-(methylsulfonyl)benzamide] |
| < 5.52 | COc1ccccc1COc1ccc(C(=O)NS(C)(=O)=O)cc1 [Example 169, 4-[(2-methoxybenzyl)oxy]-N-(methylsulfonyl)benzamide] |
| 5.07 | COc1ccccc1OCc1ccc(C(=O)NS(C)(=O)=O)cc1 [Example 34, 4-[(2-Methoxyphenoxy)methyl]-N-(methylsulfonyl)benzamide] |
| < 5.52 | CS(=O)(=O)NC(=O)c1ccc(OCc2ccccc2-c2ccccc2)c(C#N)c1 [Example 93, 4-(biphenyl-2-ylmethoxy)-3-cyano-N-(methylsulfonyl)benzamide] |
| < 6.00 | COc1ccccc1COc1cc(F)c(C(=O)NS(C)(=O)=O)cc1F [Example 233, 2,5-difluoro-4-[(2-methoxybenzyl)oxy]-N-(methylsulfonyl)benzamide] |
| < 6.00 | CCOc1ccccc1COc1cc(F)c(C(=O)NS(C)(=O)=O)cc1F [Example 226, 4-[(2-ethoxybenzyl)oxy]-2,5-difluoro-N-(methylsulfonyl)benzamide] |
| 5.26 | COc1cccc(COc2ccc(C(=O)NS(C)(=O)=O)cc2)c1 [Example 82, 4-[(3-methoxybenzyl)oxy]-N-(methylsulfonyl)benzamide] |
